Results as given in patent US8008452B2, “Phosphorylated Ndr kinase” (Novartis Forschungesstiftung, Zweigniederlassung Friedrich …, priority 2002, dated 2011).
Entries after “also recorded” stand apart in the source; their conditions may differ.

What was measured:
HA-NDR1 [1] = assay: Immunodetection of HA-NDR1 phosphorylated on Ser281 or Thr444 from COS-1 cells; format: cell-based, human; conditions: for phosphorylation of HA-NDR1 on Ser281: immunoblot with anti-P-S281; for phosphorylation of HA-NDR1 on Thr444: immunoblot with anti-P-T444
Experimental: Either 1 microgram GST-NDR1 or HA-NDR1 immunoprecipitated from 100 microgram COS-1 detergent extracts as described above was separated on 10% SDS-PAGE and immunoblotted 2 h at RT or overnight at 4° C. with anti-Ser281P antisera (1:1000) in the presence of 50 microg/ml competing unphosphopeptide or anti-Thr444P purified antibody (1:500). Both antibodies were detected with horseradish peroxidase-conjugated donkey anti-rabbit Ig antibody (Amersham biosciences) and developed by ECL (chemiluminescence; Amersham Pharmacia Biotech).
To examine this possibility, extracts from transfected COS-1 cells were analyzed with the anti-Ser281P and anti-Thr444P antisera. Protein extracts (10 microg) from transfected COS-1 cells were immunoblotted with 12CA5 to verify similar expression levels of each HA-NDR1 construct. For the analysis of phosphorylation status, 12CA5-immunoprecipitated HA-NDR1 variants (out of 100 microg protein extract) were analysed by immunoblotting with phosphospecific antibodies directed against P-S281 or P-T444.
Protein extracts (10 microg) from mock- and HA-NDR1-transfected COS-1 cells were also immunoblotted with 12CA5 to verify equal expression levels of HA-NDR1 construct. For the analysis of phosphorylation status, 12CA5-immunoprecipitated HA-NDR1 (out of 100 microgram protein extract) was analysed by immunoblotting with phosphospecific antibodies directed against P-S281 or P-T444.

HA-NDR1 [2] = assay: HA-NDR1 kinase assay on 12CA5 immunoprecipitates from transfected, treated COS-1 cells; format: cell-based, human; parameters: dose or concentration left out as unconfirmed
myc-hMOB1 = assay: Co-immunoprecipitation of HA-NDR and myc-hMOB1 from COS-1 cells; format: binding, human; conditions: COS1 cells cotransfected with HA-NDR and myc-hMOB1
Experimental: HA-tagged hNDR and myc-tagged hMOB1 were cotransfected in COS1 cells, which were stimulated with okadaic acid or solvent alone. After cell lysis and extract preparation, HA-NDR was immunoprecipitated and co-immunoprecipitated myc-hMOB1 detected or Myc-hMOB1 was immunoprecipitated and co-immunoprecipitated HA-NDR detected.
HA-NDR, wt and mutants, and myc-hMOB1 were cotransfected into COS-1 cells and the cells were treated with OA prior to lysis. HA-NDR was immunoprecipitated and the coimmunoprecipitated myc-hMOB1 detected. […] Furthermore, the two important in vivo phosphorylation sites of NDR, serine-281 in the activation segment and the hydrophobic motif site threonine-444 in the C-terminal regulatory domain were tested, as well as the threonine 74 site in the N-terminal regulatory domain, for their role in NDR-MOB interaction.
HA-NDR N-terminal point mutants and myc-mob1 were co-transfected into COS1 cells which were treated with OA prior to lysis. HA-NDR mutants were immunoprecipitated and coimmunoprecipitated myc-hMOB1 detected.
In this Example, the effect of treatment of COS1 cells with BAPTA-AM on the NDR-MOB Interaction was determined. HA-NDR and myc-MOB1 was cotransfected into COS1 cells and the cells were treated with BAPTA-AM and OA or the solvents alone prior to lysis. HA-NDR was immunoprecipitated and co-immunoprecipitated myc-MOB1 detected. The kinase activity of the HA-NDR immunoprecipitates was measured in a peptide kinase assay.

HA-NDR1 [3] = assay: HA-NDR1 kinase assay on 12CA5 immunoprecipitates from transfected, treated COS-1 cells; format: cell-based, human
Experimental: In some experiments, the cells were treated for 60 min with 1 microM okadaic acid in 0.1% N,N-dimethylformamide (DMF) (Alexis Corp.), 50 microM BAPTA-AM (1,2-bis (o-aminophenoxy) ethane-N,N,N′,N′-tetraacetic acid tetra (acetoxy-methyl)ester) in 0.1% diimethylsulfoxide (DMSO; Sigma), or 20 microM thapsigargin in 0.1% DMSO (Alomone) 24 hours after transfection.
Transfected and treated COS-1 cells were washed once with ice-cold PBS, and harvested by rubber policeman in 1 ml ice-cold PBS containing 1 mM Na3VO4 and 20 mM beta-glycerophosphate before lysis in 500 microliters of IP buffer (20 mM Tris-HCl pH 8.0, 150 mM NaCl, 1% Nonidet P-40, 10% glycerol, 1 mM Na3VO4, 20 mM beta-glycerolphosphate, 1 microM microcystin-LR, 50 mM NaF, 0.5 mM PMSF, 4 microM leupeptin, 1 mM benzamidine, and 1 tablet/10 ml IP of Complete protease inhibitors (Roche)). Lysates were centrifuged at 20 000 g for 20 min and triplicate aliquots (200 microg) of supernatant were precleared with protein A-Sepharose (Amersham Pharmacia Biotech) for 60 min and mixed subsequently for 3 h at 4° C. with 12CA5 antibody prebound to protein A-Sepharose (˜1 microg antibody bound to 2 microl beads). The beads were then washed twice with IP buffer, once for 10 min with IP buffer containing 1 M NaCl, once again for 10 min with IP buffer, and finally twice with 20 mM Tris-HCl pH 7.5 containing 4 microM leupeptin and 1 mM benzamidine. Thereafter, beads were resuspended in 30 microliters buffer containing 20 mM Tris-HCl pH 7.5, 10 mM MgCl2, 1 mM DTT, 100 microM [gamma-^32P]ATP (˜0.1 microCi/microliter), 1 microM cAMP-dependent protein kinase inhibitor peptide PKI (Bachem), 4 microM leupeptin, 1 mM benzamidine, 1 microM microcystin-LR, and 1 mM NDR1 substrate peptide ([…]). After 60 min incubation at 30° C., 15 microliters of supernatant were removed, and phosphate incorporation into the substrate peptide determined as described for GST-NDR1 above.
COS-1 cells expressing either wild type HA-NDR1 or the indicated mutants were treated for 1 h with 1 microM okadaic acid or with solvent alone. HA-tagged NDR kinase variants were then immunoprecipitated (out of 100 microgram of detergent extracts) with 12CA5 monoclonal antibody and assayed for kinase activity by a peptide kinase assay as described above.
Mock-transfected or HA-NDR1-expressing COS-1 cells were treated for 1 h with […], 50 microM BAPTA-AM, and […] or with solvent (0.1% DMF or 0.1% DMSO) alone. 12CA5 immunoprecipitates (out of 100 microgram protein extract) were then assayed using the peptide kinase assay for NDR1 kinase activity.
To test whether hMOB1 plays a role in NDR activation, myc-hMOB1 or the empty vector was cotransfected with HA-NDR1 in COS1 cells and treated with OA. 12CA5 immunoprecipitates were then assayed using the peptide kinase assay for HA-NDR kinase activity. […] GST-MOB and GST respectively was added to immunoprecipitated HA-NDR and kinase reaction were performed. The reactions were resolved on a 10% SDS PAGE and the radioactivity visualised by using a phosphoimager.

HA-NDR2 = HA-NDR2 protein kinase activity after cell treatment with okadaic acid or solvent; format: cell-based, human; conditions: for activation of NDR2 mutant by OA: cell treatment with OA; for basal kinase activity of NDR2 mutant: solvent alone, compared with HA-NDR2-WT
Experimental: All other procedures (including bacterial expression, kinase assays, immunodetection and mass spectrometry) were carried out essentially as described in the Methodology section above.
To further examine this NDR2 mutants were created in which either Ser-282 or Thr-442 were replaced by an alanine. Additionally an in vitro phosphorylation site mutant T75A essentially as described above, and a kinase dead mutant K119A was created for Ndr2. The protein kinase activity of each of these mutants was measured following cell treatment with okadaic acid (OA) or solvent alone. HA-NDR2-WT was potently stimulated (˜10-fold) by OA.

NDR2 = assay: Western blot of NDR2 variants with phosphorylation site specific antibodies; format: cell-based, human
Excerpt: This was described above for the corresponding mutants of NDR1.

Molecule | phosphorylation of HA-NDR1 on Ser281 (HA-NDR1 [1]) | phosphorylation of HA-NDR1 on Thr444 (HA-NDR1 [1]) | effect on okadaic acid-stimulated NDR1 activity (HA-NDR1 [2]) | effect of cell treatment on NDR-MOB interaction (myc-hMOB1) | Spec. Activity (NDR1 kinase activity) (HA-NDR1 [3]) | stimulation of HA-NDR2-WT kinase activity (HA-NDR2; cell treatment with OA versus solvent alone) [fold] | activation of NDR2 mutant by OA (HA-NDR2) | basal kinase activity of NDR2 mutant (HA-NDR2) | phosphorylation of NDR2 on Ser282 (NDR2) | phosphorylation of NDR2 on T442 upon OA treatment (NDR2) | increase of Ser282 phosphorylation after OA treatment (NDR2)
CC(=O)OCOC(=O)CN(CC(=O)OCOC(C)=O)c1ccccc1OCCOc1ccccc1N(CC(=O)OCOC(C)=O)CC(=O)OCOC(C)=O [BAPTA-AM, 1,2-bis (o-aminophenoxy) ethane-N,N,N′,N′-tetraacetic acid tetra (acetoxy-methyl)ester] | declined almost to the baseline | declined almost to the baseline | dramatically reduced; also recorded: reduces OA induced NDR kinase activation | reduction of the NDR-MOB interaction | 0.2676 |  |  |  |  |  | 
C=C1[C@@H](O)[C@@H]2O[C@]3(CC[C@H](/C=C/[C@@H](C)[C@@H]4CC(C)=C[C@@]5(O[C@H](C[C@@](C)(O)C(=O)O)CC[C@H]5O)O4)O3)CC[C@H]2O[C@@H]1[C@@H](O)C[C@H](C)[C@H]1O[C@@]2(CCCCO2)CC[C@H]1C [okadaic acid, reference compound] | further enhanced | only became phosphorylated after okadaic acid treatment |  | dependent on stimulation of the cells with OA | 10.142 | ~10 |  |  |  |  | 
C/C=C(/C)C(=O)O[C@H]1C(C)=C2[C@H]([C@@H]1OC(=O)CCCCCCC)[C@@](C)(OC(C)=O)C[C@H](OC(=O)CCC)[C@@]1(O)[C@H]2OC(=O)[C@@]1(C)O [thapsigargin] | rescued | rescued | rescued |  |  |  |  |  |  |  | 
K119A: NDR2 kinase dead mutant K119A |  |  |  |  |  |  | didn't show any activation by OA | nearly undetectable levels | not phosphorylated on S282 | becomes phosphorylated upon OA treatment | 
NDR2 wt: human NDR2 wild type (SEQ ID NO:3), HA-tagged |  |  |  |  |  |  |  |  | becomes phosphorylated on Ser282 | becomes phosphorylated upon OA treatment | increased after OA treatment
S282A: NDR2 mutant, Ser-282 replaced by alanine |  |  |  |  |  |  | still activated | markedly reduced basal activity |  | becomes phosphorylated upon OA treatment | 
T75A: NDR2 in vitro phosphorylation site mutant T75A |  |  |  |  |  |  | still activated | markedly reduced basal activity | becomes phosphorylated on Ser282 | becomes phosphorylated upon OA treatment | 
T442A: NDR2 mutant, Thr-442 replaced by alanine |  |  |  |  |  |  | still activated | markedly reduced basal activity | becomes phosphorylated on Ser282 |  | increased after OA treatment
